Laboratory results reported in patent US10550105B2 (Ribon Therapeutics Inc., priority 2018, dated 2020).

Tests used:
Assay in all cases: Growth inhibition of cancer cell lines, 72 hrs (CellTiter-Glo)
Type in all cases: cell-based
NCI-H647 = conditions: Homo sapiens, lung, mixed adenosquamous carcinoma
Description: (§1) Example C: Inhibition of Cancer Cell Growth by Treatment with PARP7 Inhibitors
(§2) Table A-2 and Table A-3 (below) represents the concentration that causes 50% growth inhibition (GI50) in a panel of cancer cell lines with Compound 18B and Compound 561. Cells were plated into 384-well plates at a pre-specified density in fetal bovine serum-containing media. Cells were treated with compound or vehicle (DMSO) 24 hrs later, and a day zero plate was collected for analysis. Test compound plates were incubated continuously for 72 hrs (Table A-2) or 144 hours (Table A-3) cell growth was assessed using a luminescent cell viability assay (CellTiter-Glo, Promega). The GI50was determined by correcting for the cell count at time zero (time of treatment) and plotting data as percent growth relative to vehicle-treated cells.

COR-L105 = conditions: Homo sapiens, lung, adenocarcinoma
Description: as §1, §2

HCC-1195 = conditions: lung, mixed adenosquamous carcinoma
Description: as §1, §2

NCI-H2066 = conditions: lung, small cell carcinoma
Description: as §1, §2

CFPAC-1 = conditions: Homo sapiens, pancreas, ductal carcinoma
Description: as §1, §2

NCI-H1975 = conditions: Homo sapiens, lung, non small cell carcinoma
Description: as §1, §2

MDA-MB-468 = conditions: Homo sapiens, breast, not specified
Description: as §1, §2

T3M-10 = conditions: lung, large cell carcinoma
Description: as §1, §2

TUHR10TKB = conditions: kidney, not specified
Description: as §1, §2

GSU = conditions: stomach, adenocarcinoma
Description: as §1, §2

HCC1187 = conditions: Homo sapiens, breast, ductal carcinoma
Description: as §1, §2

NCI-H2228 = conditions: Homo sapiens, lung, adenocarcinoma
Description: as §1, §2

Caki-1 = conditions: Homo sapiens, kidney, clear cell renal cell carcinoma
Description: as §1, §2

HCC-2279 = conditions: lung, adenocarcinoma
Description: as §1, §2

SCC-25 = conditions: Homo sapiens, upper aerodigestive tract, squamous cell carcinoma
Description: as §1, §2

NCI-H2081 = conditions: Homo sapiens, lung, not specified
Description: as §1, §2

SK-BR-3 = conditions: Homo sapiens, breast, not specified
Description: as §1, §2

HDQ-P1 = conditions: Homo sapiens, breast, ductal carcinoma
Description: as §1, §2

NCI-H1373 = conditions: Homo sapiens, lung, adenocarcinoma
Description: as §1, §2

SW 900 = conditions: Homo sapiens, SW900, lung, squamous cell carcinoma
Description: as §1, §2

YD-10B = conditions: upper aerodigestive tract, squamous cell carcinoma
Description: as §1, §2

CAL 27 = conditions: Homo sapiens, upper aerodigestive tract, squamous cell carcinoma
Description: as §1, §2

LUDLU-l = conditions: lung, squamous cell carcinoma
Description: as §1, §2

SW620 = conditions: Homo sapiens, SW-620, large intestine, adenocarcinoma
Description: as §1, §2

EFE-184 = conditions: Homo sapiens, endometrium, not specified
Description: as §1, §2

HCC1599 = conditions: Homo sapiens, breast, ductal carcinoma
Description: as §1, §2

NCI-H1963 = conditions: Homo sapiens, lung, small cell carcinoma
Description: as §1, §2

TE-8 = conditions: Homo sapiens, oesophagus, squamous cell carcinoma
Description: as §1, §2

NCI-H2347 = conditions: Homo sapiens, lung, adenocarcinoma
Description: as §1, §2

Panc 03.27 = conditions: Homo sapiens, PANC-03-27, pancreas, ductal carcinoma
Description: as §1, §2

NCI-H441 = conditions: Homo sapiens, lung, adenocarcinoma
Description: as §1, §2

COLO-680N = conditions: Homo sapiens, oesophagus, squamous cell carcinoma
Description: as §1, §2

EN = conditions: endometrium, not specified
Description: as §1, §2

HCC1937 = conditions: Homo sapiens, breast, ductal carcinoma
Description: as §1, §2

LXF-289 = conditions: Homo sapiens, lung, adenocarcinoma
Description: as §1, §2

YH-13 = conditions: central nervous system, astrocytoma Grade IV
Description: as §1, §2

FaDu = conditions: Homo sapiens, upper aerodigestive tract, squamous cell carcinoma
Description: as §1, §2

Hs 578T = conditions: Homo sapiens, breast, ductal carcinoma
Description: as §1, §2

NCI-H1437 = conditions: Homo sapiens, lung, adenocarcinoma
Description: as §1, §2

NCI-H596 = conditions: Homo sapiens, lung, mixed adenosquamous carcinoma
Description: as §1, §2

KMBC-2 = conditions: urinary tract, not specified
Description: as §1, §2

SNU-719 = conditions: stomach, not specified
Description: as §1, §2

KMRC-3 = conditions: kidney, clear cell renal cell carcinoma
Description: as §1, §2

GSS = conditions: stomach, adenocarcinoma
Description: as §1, §2

NCI-H1930 = conditions: Homo sapiens, lung, small cell carcinoma
Description: as §1, §2

`N#Cc1ccc(N2CCN(C(=O)c3cccc(OC[C@@H]4c5ccccc5CN4c4cn[nH]c(=O)c4C(F)(F)F)c3)CC2)nc1` (single isomer, unassigned) [Example 18 Isomer B] gave a GI50 (NCI-H647) of less than 0.1 µM, a GI50 (COR-L105) of 0.1 to 1 µM and a GI50 (HCC-1195) of 0.1 to 1 µM. The GI50 (NCI-H2066) was 0.1 to 1 µM, the GI50 (CFPAC-1) was 0.1 to 1 µM and the GI50 (NCI-H1975) was 0.1 to 1 µM. It also gave a GI50 (MDA-MB-468) of less than 0.1 µM, a GI50 (T3M-10) of less than 0.1 µM and a GI50 (TUHR10TKB) of less than 0.1 µM. For the same compound, the GI50 (GSU) was less than 0.1 µM, the GI50 (HCC1187) was 0.1 to 1 µM and the GI50 (NCI-H2228) was 0.1 to 1 µM. For the same compound, the GI50 (Caki-1) was less than 0.1 µM, the GI50 (HCC-2279) was 0.1 to 1 µM and the GI50 (SCC-25) was less than 0.1 µM. It also gave a GI50 (NCI-H2081) of 0.1 to 1 µM, a GI50 (SK-BR-3) of 0.1 to 1 µM and a GI50 (HDQ-P1) of 0.1 to 1 µM. For the same compound, the GI50 (NCI-H1373) was less than 0.1 µM, the GI50 (SW 900) was less than 0.1 µM and the GI50 (YD-10B) was less than 0.1 µM. The GI50 (CAL 27) was less than 0.1 µM, the GI50 (LUDLU-l) was 0.1 to 1 µM and the GI50 (SW620) was 0.1 to 1 µM. The GI50 (EFE-184) was less than 0.1 µM, the GI50 (HCC1599) was 0.1 to 1 µM and the GI50 (NCI-H1963) was less than 0.1 µM. It also gave a GI50 (TE-8) of less than 0.1 µM, a GI50 (NCI-H2347) of less than 0.1 µM and a GI50 (Panc 03.27) of less than 0.1 µM. The GI50 (NCI-H441) was 0.1 to 1 µM, the GI50 (COLO-680N) was less than 0.1 µM and the GI50 (EN) was 0.1 to 1 µM. It also gave a GI50 (HCC1937) of less than 0.1 µM, a GI50 (LXF-289) of 0.1 to 1 µM and a GI50 (YH-13) of less than 0.1 µM. It also gave a GI50 (FaDu) of 0.1 to 1 µM, a GI50 (Hs 578T) of 0.1 to 1 µM and a GI50 (NCI-H1437) of less than 0.1 µM. The GI50 (NCI-H596) was less than 0.1 µM, the GI50 (KMBC-2) was 0.1 to 1 µM and the GI50 (SNU-719) was 0.1 to 1 µM. For the same compound, the GI50 (KMRC-3) was 0.1 to 1 µM, the GI50 (GSS) was 0.1 to 1 µM and the GI50 (NCI-H1930) was less than 0.1 µM.
